Source: patent US20230085307A1, “PYRIDAZINONE COMPOUND AND HERBICIDE” (NISSAN CHEMICAL CORPORATION, priority 2019, published 2023)

Key:
Japanese bulrush = assay: Test Example 1: herbicidal activity, application before weed generation under submerged conditions (Table 16, symbol B); assay type: in vivo, Japanese bulrush (Schoenoplectus juncoides); details: amount of applied herbicide 320 g/ha
In short: (§1)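 Submerged Wagner pots (alluvial soil, 4 cm water) sown with weed seeds and planted with 2.5-leaf rice seedlings; emulsifiable concentrate diluted in water applied to water surface on sowing day. Held in greenhouse at 25-30 °C; injury scored 0-5 by herbicidal rate after three weeks.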

oval-leafed pondweed = assay: Test Example 1: herbicidal activity, application before weed generation under submerged conditions (Table 16, symbol C); assay type: in vivo, oval-leafed pondweed (Monochoria vaginalis); details: amount of applied herbicide 320 g/ha
In short: as §1

barnyard grass [1] = assay: Test Example 3: herbicidal effect by foliage application, Wagner pot (Table 18, symbol H); assay type: in vivo, barnyard grass (Echinochloa crus-galli); details: for herbicidal effect on barnyard grass (H): 320 g/ha; for Herbicidal effect on H (barnyard grass), foliage application: amount of applied herbicide 320 g/ha
In short: (§2)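 Plants were sown in alluvial soil held under 0.1–0.5 cm standing water and grown 14 days in a greenhouse at 25–30 °C. An emulsifiable formulation, water-diluted to the set dose, was then sprayed onto the foliage, and effects were scored three weeks later using previously defined criteria.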

Chinese sprangletop = assay: Test Example 3: herbicidal effect by foliage application, Wagner pot (Table 18, symbol D); assay type: in vivo, chinese sprangletop (Leptochloa chinensis); details: for herbicidal effect on Chinese sprangletop (D): 320 g/ha; for Herbicidal effect on D (Chinese sprangletop), foliage application: amount of applied herbicide 320 g/ha
In short: as §2

rice flat sedge = assay: Test Example 3: herbicidal effect by foliage application, Wagner pot (Table 18, symbol E); assay type: in vivo, rice flat sedge (Cyperus iria); details: for herbicidal effect on rice flat sedge (E): 320 g/ha; for Herbicidal effect on E (rice flat sedge), foliage application: amount of applied herbicide 320 g/ha
In short: as §2

southern crabgrass = assay: Test Example 4: herbicidal effect by soil treatment (Table 19, symbol F); assay type: in vivo, southern crabgrass (Digitaria ciliaris); details: amount of applied herbicide 320 g/ha
In short: (§3)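 Step 1: sow seeds in sterilized diluvial soil, cover ~1.5 cm. Step 2: spray diluted emulsion onto soil surface at predetermined rate. Step 3: greenhouse, 25–30° C, three weeks. Step 4: grade effect on each plant by earlier criteria.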

green foxtail [2] = assay: Test Example 4: herbicidal effect by soil treatment (Table 19, symbol G); assay type: in vivo, green foxtail (Setaria viridis); details: amount of applied herbicide 320 g/ha
In short: as §3

barnyard grass [3] = assay: Test Example 4: herbicidal effect by soil treatment (Table 19, symbol H); assay type: in vivo, barnyard grass (Echinochloa crus-galli); details: amount of applied herbicide 320 g/ha
In short: as §3

windgrass [4] = assay: Test Example 4: herbicidal effect by soil treatment (Table 19, symbol L); assay type: in vivo, windgrass (Apera spica-venti); details: amount of applied herbicide 320 g/ha
In short: as §3

velvetleaf = assay: Test Example 4: herbicidal effect by soil treatment (Table 19, symbol M); assay type: in vivo, velvetleaf (Abutilon theophrasti); details: amount of applied herbicide 320 g/ha
In short: as §3

redroot pigweed = assay: Test Example 4: herbicidal effect by soil treatment (Table 19, symbol N); assay type: in vivo, redroot pigweed (Amaranthus retroflexus); details: amount of applied herbicide 320 g/ha
In short: as §3

green foxtail [5] = assay: Test Example 5: herbicidal effect by foliage application, plastic box (Table 20, symbol G); assay type: in vivo, green foxtail (Setaria viridis); details: foliage application, 320 g/ha, three weeks after application
In short: (§4)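 Foliar spray test: emulsion formulation diluted in water to a set application rate, sprayed onto 14-day-old plants raised in diluvial soil at 25° C to 30° C under glass. Both herbicidal effect and crop effect rated visually three weeks later.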

barnyard grass [6] = assay: Test Example 5: herbicidal effect by foliage application, plastic box (Table 20, symbol H); assay type: in vivo, barnyard grass (Echinochloa crus-galli); details: foliage application, 320 g/ha, three weeks after application
In short: as §4

wild oat = assay: Test Example 5: herbicidal effect by foliage application, plastic box (Table 20, symbol I); assay type: in vivo, wild oat (Avena fatua); details: foliage application, 320 g/ha, three weeks after application
In short: as §4

windgrass [7] = assay: Test Example 5: herbicidal effect by foliage application, plastic box (Table 20, symbol L); assay type: in vivo, windgrass (Apera spica-venti); details: foliage application, 320 g/ha, three weeks after application
In short: as §4

lambsquarters = assay: Test Example 5: herbicidal effect by foliage application, plastic box (Table 20, symbol O); assay type: in vivo, lambsquarters (Chenopodium album); details: foliage application, 320 g/ha, three weeks after application
In short: as §4

persian speedwell = assay: Test Example 5: herbicidal effect by foliage application, plastic box (Table 20, symbol R); assay type: in vivo, Persian speedwell (Veronica persica); details: foliage application, 320 g/ha, three weeks after application
In short: as §4

SMILES: CCOc1ccccc1-c1sc2cc(C)c(C)cc2c1-c1c(O)c(C)nn(C)c1=O [5-094]
- Herbicidal effect, B: Japanese bulrush (Japanese bulrush): 4 (Herbicidal rate of 70% or more and less than 90%)
- Herbicidal effect, C: oval-leafed pondweed (oval-leafed pondweed): 4 (Herbicidal rate of 70% or more and less than 90%)
- herbicidal effect on barnyard grass (H) (barnyard grass [1]): 5 (Herbicidal rate of 90% or more (almost completely withered))
- herbicidal effect on Chinese sprangletop (D) (Chinese sprangletop): 3 (Herbicidal rate of 40% or more and less than 70%)
- herbicidal effect on rice flat sedge (E) (rice flat sedge): 4 (Herbicidal rate of 70% or more and less than 90%)
- F: southern crabgrass, herbicidal effect grade (southern crabgrass): 4 (Herbicidal rate of 70% or more and less than 90%)
- G: green foxtail, herbicidal effect grade (green foxtail [2]): 4 (Herbicidal rate of 70% or more and less than 90%)
- H: barnyard grass, herbicidal effect grade (barnyard grass [3]): 1 (Herbicidal rate of 5% or more and less than 20%)
- L: windgrass, herbicidal effect grade (windgrass [4]): 3 (Herbicidal rate of 40% or more and less than 70%)
- M: velvetleaf, herbicidal effect grade (velvetleaf): 1 (Herbicidal rate of 5% or more and less than 20%)
- N: redroot pigweed, herbicidal effect grade (redroot pigweed): 3 (Herbicidal rate of 40% or more and less than 70%)
- herbicidal effect on green foxtail (G) (green foxtail [5]): 5 (Herbicidal rate of 90% or more (almost completely withered))
- herbicidal effect on barnyard grass (H) (barnyard grass [6]): 5 (Herbicidal rate of 90% or more (almost completely withered))
- herbicidal effect on wild oat (I) (wild oat): 1 (Herbicidal rate of 5% or more and less than 20%)
- herbicidal effect on windgrass (L) (windgrass [7]): 4 (Herbicidal rate of 70% or more and less than 90%)
- herbicidal effect on lambsquarters (O) (lambsquarters): 4 (Herbicidal rate of 70% or more and less than 90%)
- herbicidal effect on persian speedwell (R) (persian speedwell): 5 (Herbicidal rate of 90% or more (almost completely withered))

SMILES: COc1cc(F)ccc1-c1sc2cc(C)c(C)cc2c1-c1c(O)c(C)nn(C)c1=O [5-101]
- Herbicidal effect, B: Japanese bulrush (Japanese bulrush): 3 (Herbicidal rate of 40% or more and less than 70%)
- Herbicidal effect, C: oval-leafed pondweed (oval-leafed pondweed): 3 (Herbicidal rate of 40% or more and less than 70%)
- herbicidal effect on barnyard grass (H) (barnyard grass [1]): 5 (Herbicidal rate of 90% or more (almost completely withered))
- herbicidal effect on Chinese sprangletop (D) (Chinese sprangletop): 2 (Herbicidal rate of 20% or more and less than 40%)
- herbicidal effect on rice flat sedge (E) (rice flat sedge): 3 (Herbicidal rate of 40% or more and less than 70%)
- F: southern crabgrass, herbicidal effect grade (southern crabgrass): 0 (Herbicidal rate of 5% or less (almost no effect))
- G: green foxtail, herbicidal effect grade (green foxtail [2]): 0 (Herbicidal rate of 5% or less (almost no effect))
- H: barnyard grass, herbicidal effect grade (barnyard grass [3]): 0 (Herbicidal rate of 5% or less (almost no effect))
- L: windgrass, herbicidal effect grade (windgrass [4]): 0 (Herbicidal rate of 5% or less (almost no effect))
- M: velvetleaf, herbicidal effect grade (velvetleaf): 0 (Herbicidal rate of 5% or less (almost no effect))
- N: redroot pigweed, herbicidal effect grade (redroot pigweed): 1 (Herbicidal rate of 5% or more and less than 20%)
- herbicidal effect on green foxtail (G) (green foxtail [5]): 4 (Herbicidal rate of 70% or more and less than 90%)
- herbicidal effect on barnyard grass (H) (barnyard grass [6]): 3 (Herbicidal rate of 40% or more and less than 70%)
- herbicidal effect on wild oat (I) (wild oat): 0 (Herbicidal rate of 5% or less (almost no effect))
- herbicidal effect on windgrass (L) (windgrass [7]): 3 (Herbicidal rate of 40% or more and less than 70%)
- herbicidal effect on lambsquarters (O) (lambsquarters): 4 (Herbicidal rate of 70% or more and less than 90%)
- herbicidal effect on persian speedwell (R) (persian speedwell): 4 (Herbicidal rate of 70% or more and less than 90%)

SMILES: COc1ccccc1-c1sc2c(Br)c(OC)ccc2c1-c1c(O)c(C)nn(C)c1=O [7-002]
- Herbicidal effect, B: Japanese bulrush (Japanese bulrush): 3 (Herbicidal rate of 40% or more and less than 70%)
- Herbicidal effect, C: oval-leafed pondweed (oval-leafed pondweed): 3 (Herbicidal rate of 40% or more and less than 70%)
- Herbicidal effect on H (barnyard grass), foliage application (barnyard grass [1]): 5 (Herbicidal rate of 90% or more (almost completely withered))
- Herbicidal effect on D (Chinese sprangletop), foliage application (Chinese sprangletop): 2 (Herbicidal rate of 20% or more and less than 40%)
- Herbicidal effect on E (rice flat sedge), foliage application (rice flat sedge): 4 (Herbicidal rate of 70% or more and less than 90%)
- F: southern crabgrass, herbicidal effect grade (southern crabgrass): 1 (Herbicidal rate of 5% or more and less than 20%)
- G: green foxtail, herbicidal effect grade (green foxtail [2]): 0 (Herbicidal rate of 5% or less (almost no effect))
- H: barnyard grass, herbicidal effect grade (barnyard grass [3]): 2 (Herbicidal rate of 20% or more and less than 40%)
- L: windgrass, herbicidal effect grade (windgrass [4]): 0 (Herbicidal rate of 5% or less (almost no effect))
- M: velvetleaf, herbicidal effect grade (velvetleaf): 1 (Herbicidal rate of 5% or more and less than 20%)
- N: redroot pigweed, herbicidal effect grade (redroot pigweed): 5 (Herbicidal rate of 90% or more (almost completely withered))
- herbicidal effect on green foxtail (G) (green foxtail [5]): 5 (Herbicidal rate of 90% or more (almost completely withered))
- herbicidal effect on barnyard grass (H) (barnyard grass [6]): 5 (Herbicidal rate of 90% or more (almost completely withered))
- herbicidal effect on wild oat (I) (wild oat): 0 (Herbicidal rate of 5% or less (almost no effect))
- herbicidal effect on windgrass (L) (windgrass [7]): 5 (Herbicidal rate of 90% or more (almost completely withered))
- herbicidal effect on lambsquarters (O) (lambsquarters): 4 (Herbicidal rate of 70% or more and less than 90%)
- herbicidal effect on persian speedwell (R) (persian speedwell): 5 (Herbicidal rate of 90% or more (almost completely withered))

SMILES: Cc1nn(C)c(=O)c(-c2c(-c3ccc4c(c3)OCCO4)oc3ccccc23)c1O [8-002]
- Herbicidal effect, B: Japanese bulrush (Japanese bulrush): 5 (Herbicidal rate of 90% or more (almost completely withered))
- Herbicidal effect, C: oval-leafed pondweed (oval-leafed pondweed): 4 (Herbicidal rate of 70% or more and less than 90%)
- Herbicidal effect on H (barnyard grass), foliage application (barnyard grass [1]): 4 (Herbicidal rate of 70% or more and less than 90%)
- Herbicidal effect on D (Chinese sprangletop), foliage application (Chinese sprangletop): 3 (Herbicidal rate of 40% or more and less than 70%)
- Herbicidal effect on E (rice flat sedge), foliage application (rice flat sedge): 4 (Herbicidal rate of 70% or more and less than 90%)
- F: southern crabgrass, herbicidal effect grade (southern crabgrass): 3 (Herbicidal rate of 40% or more and less than 70%)
- G: green foxtail, herbicidal effect grade (green foxtail [2]): 3 (Herbicidal rate of 40% or more and less than 70%)
- H: barnyard grass, herbicidal effect grade (barnyard grass [3]): 3 (Herbicidal rate of 40% or more and less than 70%)
- L: windgrass, herbicidal effect grade (windgrass [4]): 0 (Herbicidal rate of 5% or less (almost no effect))
- M: velvetleaf, herbicidal effect grade (velvetleaf): 0 (Herbicidal rate of 5% or less (almost no effect))
- N: redroot pigweed, herbicidal effect grade (redroot pigweed): 2 (Herbicidal rate of 20% or more and less than 40%)
- herbicidal effect on green foxtail (G) (green foxtail [5]): 3 (Herbicidal rate of 40% or more and less than 70%)
- herbicidal effect on barnyard grass (H) (barnyard grass [6]): 4 (Herbicidal rate of 70% or more and less than 90%)
- herbicidal effect on wild oat (I) (wild oat): 2 (Herbicidal rate of 20% or more and less than 40%)
- herbicidal effect on windgrass (L) (windgrass [7]): 1 (Herbicidal rate of 5% or more and less than 20%)
- herbicidal effect on lambsquarters (O) (lambsquarters): 0 (Herbicidal rate of 5% or less (almost no effect))
- herbicidal effect on persian speedwell (R) (persian speedwell): 5 (Herbicidal rate of 90% or more (almost completely withered))

SMILES: CCCOc1ccc(-c2oc3ccccc3c2-c2c(O)c(C)nn(C)c2=O)cc1 [8-003]
- Herbicidal effect, B: Japanese bulrush (Japanese bulrush): 5 (Herbicidal rate of 90% or more (almost completely withered))
- Herbicidal effect, C: oval-leafed pondweed (oval-leafed pondweed): 5 (Herbicidal rate of 90% or more (almost completely withered))
- Herbicidal effect on H (barnyard grass), foliage application (barnyard grass [1]): 5 (Herbicidal rate of 90% or more (almost completely withered))
- Herbicidal effect on D (Chinese sprangletop), foliage application (Chinese sprangletop): 3 (Herbicidal rate of 40% or more and less than 70%)
- Herbicidal effect on E (rice flat sedge), foliage application (rice flat sedge): 4 (Herbicidal rate of 70% or more and less than 90%)
- F: southern crabgrass, herbicidal effect grade (southern crabgrass): 3 (Herbicidal rate of 40% or more and less than 70%)
- G: green foxtail, herbicidal effect grade (green foxtail [2]): 2 (Herbicidal rate of 20% or more and less than 40%)
- H: barnyard grass, herbicidal effect grade (barnyard grass [3]): 5 (Herbicidal rate of 90% or more (almost completely withered))
- L: windgrass, herbicidal effect grade (windgrass [4]): 0 (Herbicidal rate of 5% or less (almost no effect))
- M: velvetleaf, herbicidal effect grade (velvetleaf): 1 (Herbicidal rate of 5% or more and less than 20%)
- N: redroot pigweed, herbicidal effect grade (redroot pigweed): 5 (Herbicidal rate of 90% or more (almost completely withered))
- herbicidal effect on green foxtail (G) (green foxtail [5]): 5 (Herbicidal rate of 90% or more (almost completely withered))
- herbicidal effect on barnyard grass (H) (barnyard grass [6]): 5 (Herbicidal rate of 90% or more (almost completely withered))
- herbicidal effect on wild oat (I) (wild oat): 1 (Herbicidal rate of 5% or more and less than 20%)
- herbicidal effect on windgrass (L) (windgrass [7]): 0 (Herbicidal rate of 5% or less (almost no effect))
- herbicidal effect on lambsquarters (O) (lambsquarters): 3 (Herbicidal rate of 40% or more and less than 70%)
- herbicidal effect on persian speedwell (R) (persian speedwell): 5 (Herbicidal rate of 90% or more (almost completely withered))
